Data as given in ChEMBL document CHEMBL1144231, “Discovery of pyrimidine benzimidazoles as Lck inhibitors: part I” (Bioorg Med Chem Lett, 2008).

Target: Tyrosine-protein kinase Lck (Homo sapiens, UniProt P06239)
Test: Inhibition of Lck by lance assay

Tyrosine-protein kinase Lck, sequence (P06239 whole entry): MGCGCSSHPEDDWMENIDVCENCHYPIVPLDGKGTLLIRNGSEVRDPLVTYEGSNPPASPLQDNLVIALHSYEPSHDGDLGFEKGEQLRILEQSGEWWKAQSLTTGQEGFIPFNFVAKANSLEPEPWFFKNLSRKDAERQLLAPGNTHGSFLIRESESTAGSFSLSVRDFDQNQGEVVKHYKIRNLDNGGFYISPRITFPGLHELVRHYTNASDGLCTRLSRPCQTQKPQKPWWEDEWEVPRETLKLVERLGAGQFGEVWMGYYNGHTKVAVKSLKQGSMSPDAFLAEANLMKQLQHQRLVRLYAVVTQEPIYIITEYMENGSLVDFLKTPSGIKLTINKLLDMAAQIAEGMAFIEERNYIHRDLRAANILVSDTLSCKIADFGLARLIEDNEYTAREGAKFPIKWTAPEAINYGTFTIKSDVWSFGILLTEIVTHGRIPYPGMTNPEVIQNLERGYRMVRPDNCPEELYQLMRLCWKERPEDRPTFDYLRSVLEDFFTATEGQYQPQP

SMILES	IC50 [nM]
Cc1nc(Nc2cc(-n3c(Nc4c(C)cccc4Cl)nc4ccccc43)ncn2)cc(N2CCN(CCO)CC2)n1	25
Cc1cccc(Cl)c1Nc1nc2ccccc2n1-c1cc(Nc2ncnc(NCCN3CCOCC3)c2C)ncn1	119
Cc1nc(NCCN2CCOCC2)cc(Nc2cc(-n3c(Nc4c(C)cccc4Cl)nc4ccccc43)ncn2)n1	5
Cc1cccc(Cl)c1Nc1nc2ccccc2n1-c1cc(Nc2ccc(CCN3CCOCC3)cn2)ncn1	31
Cc1cccc(Cl)c1Nc1nc2ccccc2n1-c1cc(Nc2cc(CN3CCOCC3)ccn2)ncn1	14
CCN(CC)CCCCNc1cc(-n2c(Nc3c(C)cccc3Cl)nc3ccccc32)ncn1	789
Cc1cccc(Cl)c1Nc1nc2ccccc2n1-c1cc(N)ncn1	514

Other lines, results leading:

IC50 [nM]	SMILES
> 2500	Cc1cccc(Cl)c1Nc1nc2ccccc2n1-c1cc(Cl)ncn1
> 2500	Cc1cccc(Cl)c1Nc1nc2ccccc2n1-c1cc(NN2CCOCC2)ncn1
1360	Cc1cc(C)c(Nc2nc3ccccc3n2-c2cc(N)ncn2)c(Br)c1
1780	Cc1cc(C)c(Nc2nc3ccccc3n2-c2cc(N)ncn2)c(C)c1
2090	Cc1cccc(Cl)c1Nc1nc2ccccc2n1-c1ccncn1
> 2500	Cc1cccc(Cl)c1Nc1nc2ccccc2n1-c1cc(N2CCOCC2)ncn1
